In patent publication US8633319B2, “7-(1H-pyrazol-4-yl)-1,6-naphthyridine compounds as Syk inhibitors” (Glaxo Group Limited, priority 2010, dated 2014):
Where two headings read alike, the source gives them in different places.

Columns and labels:
hERG = target: T1, hERG (Homo sapiens, UniProt Q12809); experiment: Cy3B Dofetilide Fluoro-Ligand Binding Assay for hERG; settings: membranes of CHO-K1 cells that express hERG, pH 7.4, probe Cy3b-Dofetilide fluoro-ligand, 1.0 nM, hERG-expressing CHO-K1 membranes
T1 construct: expressed in transfected cells; host or cells: CHO-K1 cells stably expressing human hERG; membrane fraction
Procedure: Compound potencies were determined by a fluoro-ligand^§ (Cy3b-Dofetilide) fluorescence polarisation assay.
hERG-expressing CHO-K1 membranes* (60 μg/ml) were incubated with 1.0 nM fluoro-ligand^§, in assay buffer (25 mM HEPES, 1.2 mM MgCl2, 100 mM KCl and 0.1% pluronic, pH adjusted to 7.4 using 5M KOH). The final potassium concentration in the assay was 100 mM. After 70 min mixing at room temperature, in the dark, 10 μl was dispensed into each well of a black LV Greiner 384-well plate containing 0.1 μl of test compound in DMSO. The plates were left to equilibrate for 2 h before reading on an Acquest™/Analyst™ imager. pIC50 data were generated using from an 11-point inhibition curve (top assay concentration of 50 μM and a 1:3 step-dilution), a […] curve-fit being applied using ABase and XC50 to analyse data and generate curve fits.
Chinese Hamster Ovary (CHO) cells stably expressing the human hERG receptor were grown to 80% confluency before being harvested by trypsinisation and subsequent centrifugation at 500 g for 10 min. Cell pellets were frozen at −80 C before membrane production. The frozen pellet was thawed on ice, re-suspended and homogenised in 10 volumes of membrane buffer (50 mM HEPES, pH 7.4, 1 mM EDTA, 1 mM PMSF, 2×10^-6M Pepstatin A). The membrane suspension was centrifuged for 20 min at 500 g, the pellet discarded and the supernatent spun again at 48,000 g for 30 min. Following the second centrifugation the remaining pellet containing the membrane fraction was re-suspended in an appropriate volume (4 ml for each ml of frozen cell pellet) and assayed for protein concentration.

SYK lysate = target: T2, SYK lysate (Homo sapiens, UniProt P43405); experiment: Basic Syk Enzyme Activity; type: biochemical; settings: read-out: average pIC50 (converted)
T2 construct: Stimulation of Ramos Cells with Anti-IgM Ab to Produce Syk & Preparation of Lysates; endogenous in cells; host or cells: Ramos B cells (human Burkitt's lymphoma, clone 296.4C10, ATCC), stimulated with anti-IgM and lysed in 1% Triton X-100
Procedure: 3 μl of SYK lysate diluted 16-fold in assay buffer (20 mM TRIS pH 7.4, 0.01% BSA, 0.1% Pluronic F-68) was added to wells containing 0.1 μl of various concentrations of compound or DMSO vehicle (1.7% final) in a Greiner low volume 384 well black plate. Following 15 min pre-incubation at room temperature, the reaction was initiated by the addition of 3 μl of substrate reagent containing Y7 Sox peptide, (Invitrogen Cat. # KNZ3071, 5 μM final), ATP (35 μM final) and MgCl2 (10 mM final) in assay buffer. The reaction was incubated at room temperature before measuring fluorescence intensity (λex 360/λem 485) on an Envision plate reader (Perkin Elmer Life Sciences, Waltham, Mass., USA) at 15 min and 55 min post-substrate addition.
Ramos B Cells (human B cells of Burkitt's lymphoma, clone 296.4C10, ATCC) were cultured in suspension in growth medium (RPMI-1640, Sigma; supplemented with 2 mM L-glutamine, Gibco; 10 mM Hepes, Sigma; 1 mM sodium pyruvate, Sigma; 10% v/v heat-inactivated FCS, Gibco). Cells were grown in Corning Cellstacks (6360 cm^2) in 1 liter volume and viability and cell density were monitored daily. Cells were maintained at <1.5×10e6/ml and >92% viability.
Cells were stimulated at 20×10^6 cells/ml using 15 ug/ml (final concentration) anti-IgM antibody. Following harvest (as described above), a total of 4×10^9 cells were resuspended in 180 ml pre-warmed (37° C.) DPBS in a Corning 500 ml centrifuge bottle. 20 ml anti-IgM antibody at 150 ug/ml were added to each 500 ml centrifuge bottle (working stock made up in DPBS pre-warmed to 37° C.). Cells were incubated for exactly 5 min at 37° C. following the addition of anti IgM antibody. Following 5 min stimulation, 300 ml ice-cold DPBS were added to each bottle to stop the stimulation (temperature drops to ˜12° C.) then cells were centrifuged at 2000 rpm (Sorvall Legend RT+ centrifuge—pre-chilled to 4° C.). Cells were washed by resuspension in ice-cold DPBS and centrifugation as above. The cell pellet was then lysed in ice-cold lysis buffer containing 1% triton-x-100 at a ratio of 150 ul/1×10^7 cells (i.e. 48 ml lysis buffer). Following the addition of lysis buffer, the cells were pipetted up & down & kept on ice for 15 min. The clarified lysate was then obtained by centrifugation (Sorvall Evolution RC (SLA-1500 rotor, ˜20,000 g (˜14,500 rpm), 45 min, 4° C.).
Lysate was aliquoted, snap-frozen on dry-ice & stored at −80° C. prior to assay.
Lysis Buffer: 50 mM TRIS pH7.5+150 mM NaCl+1% Triton-X-100+2 mM EGTA+1:100 dilution inhibitor cocktails (phosphatase inhibitor cocktail set II, calbiochem cat no. 524625 & protease inhibitor cocktail set V, calbiochem cat no. 539137)

Whole blood B cells = experiment: CD69 Whole Blood Assay; type: cell-based; settings: Homo sapiens, B-cell, anti-IgM stimulated
Procedure: Whole blood B cells are stimulated ex-vivo using anti-IgM. […] The subsequent autophosphorylation of Syk leads to initiation of a signalling cascade resulting in B cell activation as indicated by expression of the activation marker CD69 on the cell surface. CD20/CD69+ve whole blood B cells are detected by flow cytometry.
100 μl heparinised human blood was added to a 5 ml polypropylene tube containing 1 μl appropriately diluted compound solution and incubated for 25 min at 37° C. with 5% CO2. B cells were stimulated with 10 μl Fab′2 fragments of goat anti-human IgM (43 μg/ml final concentration) for a further 3.5 h under the conditions previously described. The red blood cells were lysed and all other cells fixed by the addition of 2 ml Lyse/Fix buffer for 10 min at room temperature.
The cells were stained using a cocktail of mouse anti-human CD20 FITC and mouse anti-human CD69 PE conjugated antibodies. CD20/CD69+ve B cells present in the sample were detected by flow cytometry.
Compound was prepared as a 10 mM stock in DMSO, further diluted down in DMSO to 1 mM and a dilution series prepared in DMSO using 7 successive 3-fold dilutions to give the final concentration range to be tested of 1×10^−5 to 4.57×10^−9M. Compound dilutions were prepared using the Biomek 2000 automated robotic pipetting system.

allergic rhinitis [1] = settings: phase II; cited from earlier work
allergic rhinitis [2] = settings: intranasal, phase I/II; cited from earlier work
[3] = system: B-Cell non-Hodgkin's lymphoma (NHL); settings: cited from earlier work
B lymphoma (BKS-2) = settings: mouse, in vivo; cited from earlier work
[4] = as the free base, read-out: average IC50
[5] = form not stated (first list), read-out: average pIC50 (converted)
[6] = as the free base, read-out: average pIC50 (converted)
[7] = hydrochloric acid salts, read-out: average IC50
[8] = hydrochloric acid salts, read-out: average pIC50 (converted)

T1 sequence (Q12809 whole entry): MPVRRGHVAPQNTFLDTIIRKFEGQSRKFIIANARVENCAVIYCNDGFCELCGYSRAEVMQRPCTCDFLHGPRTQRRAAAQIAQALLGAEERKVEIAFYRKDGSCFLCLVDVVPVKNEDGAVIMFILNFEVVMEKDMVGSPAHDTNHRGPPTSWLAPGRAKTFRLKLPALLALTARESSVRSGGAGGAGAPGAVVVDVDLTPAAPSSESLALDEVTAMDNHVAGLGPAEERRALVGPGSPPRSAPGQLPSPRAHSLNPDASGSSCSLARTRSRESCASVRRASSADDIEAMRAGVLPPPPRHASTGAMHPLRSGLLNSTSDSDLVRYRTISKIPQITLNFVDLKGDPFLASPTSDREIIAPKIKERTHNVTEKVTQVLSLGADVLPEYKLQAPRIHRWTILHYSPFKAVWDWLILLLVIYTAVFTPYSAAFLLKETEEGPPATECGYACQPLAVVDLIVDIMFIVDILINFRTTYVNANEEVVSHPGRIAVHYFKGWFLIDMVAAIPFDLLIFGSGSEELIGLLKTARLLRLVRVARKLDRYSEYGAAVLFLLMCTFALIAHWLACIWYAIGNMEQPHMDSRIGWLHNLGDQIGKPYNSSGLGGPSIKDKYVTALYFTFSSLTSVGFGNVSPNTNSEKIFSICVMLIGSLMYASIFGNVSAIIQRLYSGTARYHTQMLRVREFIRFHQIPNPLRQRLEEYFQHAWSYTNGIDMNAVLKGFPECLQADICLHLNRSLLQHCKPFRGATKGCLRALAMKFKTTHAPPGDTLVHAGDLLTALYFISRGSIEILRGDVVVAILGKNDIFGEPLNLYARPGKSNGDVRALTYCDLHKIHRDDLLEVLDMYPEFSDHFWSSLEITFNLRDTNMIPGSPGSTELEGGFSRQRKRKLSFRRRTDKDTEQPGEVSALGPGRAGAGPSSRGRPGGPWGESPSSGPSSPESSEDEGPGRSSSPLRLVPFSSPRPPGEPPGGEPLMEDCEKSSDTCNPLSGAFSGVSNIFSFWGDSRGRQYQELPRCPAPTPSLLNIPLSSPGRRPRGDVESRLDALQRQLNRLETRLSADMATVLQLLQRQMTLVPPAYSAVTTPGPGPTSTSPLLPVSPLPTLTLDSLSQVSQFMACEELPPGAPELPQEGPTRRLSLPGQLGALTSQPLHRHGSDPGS

Row | SMILES | IC50 at 2 h (hERG; [4]) [nM] | IC50 at 2 h (hERG; [5]) [nM] | IC50 (SYK lysate; as the free base) [nM] | IC50 (Whole blood B cells; [6]) [nM] | IC50 (Whole blood B cells; [4]) [nM] | other results
1 | CC(C)(O)Cn1cc(-c2cc3ncccc3c(NC[C@]3(F)CCCNC3)n2)cn1 [Example 5, 1-{4-[5-({[(3S)-3-fluoro-3-piperidinyl]methyl}amino)-1,6-naphthyridin-7-yl]-1H-pyrazol-1-yl}-2-methyl-2-propanol] | > 10000 | > 10000 | ≤ 100 | ≤ 1000 |  | 
2 | Oc1cccc(Nc2ncc(F)c(Nc3cccc(O)c3)n2)c1 [Example R112] |  |  |  |  |  | efficacy versus placebo (allergic rhinitis [1]): lack of efficacy; PGD2 (allergic rhinitis [2]): statistically significant decrease; clinical safety (allergic rhinitis [2]): safe across a range of indicators
3 | COc1cc(Nc2ncc(F)c(Nc3ccc4c(n3)N(COP(=O)(O)O)C(=O)C(C)(C)O4)n2)cc(OC)c1OC [Example R788, fostamatinib disodium] |  |  |  |  |  | therapeutic benefit ([3]; patients with DLBCL and CLL/SLL): therapeutic benefit; tolerability ([3]; patients with relapsed or refractory B-Cell NHL): well-tolerated
4 | FC1(CNc2nc(-c3cnn(Cc4ccccc4)c3)cc3ncccc23)CCCNC1 (racemic) [Example 10, N-[(3-fluoro-3-piperidinyl)methyl]-7-[1-(phenylmethyl)-1H-pyrazol-4-yl]-1,6-naphthyridin-5-amine] | > 10000 | > 10000 | ≤ 100 | ≤ 1000 | < 1000 | 
5 | CC(C)n1cc(-c2cc3ncccc3c(NCC3(F)CCCNC3)n2)cn1 (single isomer, unassigned) [Example 11A, N-{[3-fluoro-3-piperidinyl]methyl}-7-[1-(1-methylethyl)-1H-pyrazol-4-yl]-1,6-naphthyridin-5-amine] | > 10000 | > 10000 | ≤ 100 | ≤ 1000 | < 1000 | 
6 | FC(F)(F)Cn1cc(-c2cc3ncccc3c(NCC3(F)CCCNC3)n2)cn1 (single isomer, unassigned) [Example 9A, N-{[3-fluoro-3-piperidinyl]methyl}-7-[1-(2,2,2-trifluoroethyl)-1H-pyrazol-4-yl]-1,6-naphthyridin-5-amine] | > 10000 | > 10000 | ≤ 100 | ≤ 1000 | < 1000 | 
7 | COCCn1cc(-c2cc3ncccc3c(NC[C@]3(F)CCCNC3)n2)cn1 [Example 7, N-{[(3S)-3-fluoro-3-piperidinyl]methyl}-7-{1-[2-(methyloxy)ethyl]-1H-pyrazol-4-yl}-1,6-naphthyridin-5-amine] | > 10000 | > 10000 | ≤ 100 | ≤ 1000 | < 1000 | 
8 | COc1cc(/C=C/C(=O)CC(=O)/C=C/c2ccc(O)c(OC)c2)ccc1O [curcumin] |  |  |  |  |  | tumour burden as measured by the total splenocyte number (B lymphoma (BKS-2)): significant reduction
9 | FC1(CNc2nc(-c3cnn(C4CCCC4)c3)cc3ncccc23)CCCNC1 (racemic) [Example 8, 7-(1-cyclopentyl-1H-pyrazol-4-yl)-N-[(3-fluoro-3-piperidinyl)methyl]-1,6-naphthyridin-5-amine] | > 10000 | > 10000 | ≤ 100 | ≤ 1000 | < 1000 | 
10 | OCCn1cc(-c2cc3ncccc3c(NC[C@]3(F)CCCNC3)n2)cn1 [Example 6, 2-{4-[5-({[(3S)-3-fluoro-3-piperidinyl]methyl}amino)-1,6-naphthyridin-7-yl]-1H-pyrazol-1-yl}ethanol] |  |  |  |  |  | IC50 at 2 h (hERG; [7]): > 20000 nM; IC50 at 2 h (hERG; [8]): > 10000 nM; IC50 (SYK lysate; hydrochloric acid salts): ≤ 316 nM; IC50 (Whole blood B cells; [7]): < 1000 nM; IC50 (Whole blood B cells; [8]): ≤ 1000 nM
